# Measured values taken from patent US11008325B2, “Inhibitors of cancer invasion, attachment, and/or metastasis” (VIRGINIA COMMONWEALTH UNIVERSITY, priority 2016, dated 2021).
# Legend:
# U87-EGFRvIII cells = test: immunoblot of EGFRvIII/FAK/NF-kB signaling with radiation; assay type: cell-based, human
# Procedure: FIGS. 9A-9C. PDZ1i treatment impairs EGFRvIII and FAK signaling, as well as EGFRvIII-MDA-9 interaction. FIG. 9A. Immunoblot analysis showing expression of mutated EGFR in U87 or U87EGFRvIII cells. FIG. 9B. Cells were treated with either DMSO or PDZ1i 2 hrs prior to radiation. These cells were subsequently seeded on fibronectin-coated plates and cell lysates were collected after 1 hr and analyzed for protein expression. FIG. 9C. Lysates from cells treated with and without radiation or PDZ1i as indicated were analyzed via immunoprecipitation. Anti-MDA-9, top, and anti-EGFR, bottom, were used to pull down associated complexes, and western blotting was performed with the indicated antibodies. Left lanes include IgG and control input samples.
# PDZ1i inhibits EGFRvIII-driven signaling in GBM and reduces MMP secretion. EGFR amplification and mutation is both a common and important alteration in GBM. A particular mutation of this receptor, EGFRvIII, is often co-expressed along with EGFR amplification in GBM. […] U87 cells stably expressing EGFRvIII, U87-EGFRvIII (FIG. 9), were treated with PDZ1i prior to radiation. […]
# Preparation of whole-cell lysates and Western blotting analysis was performed as described (5). For densitometry evaluation, X-ray films were scanned and analyzed with ImageJ software (NIH).
# RM1-Luc cells = test: RM1-Luc intracardiac metastasis model; assay type: in vivo, C57BL/6 mice; conditions: I.P., 3 injections/first week
# Procedure: FIG. 19A-19F. PDZ1i suppresses prostate cancer metastasis and tumor progression. FIG. 19A) Survival data for athymic nude mice in which DMSO or PDZ1i pre-treated ARCaPM cells were injected. FIG. 19B) Survival data for athymic nude mice which were injected with (n=5, each group) ARCaPM-Luc (1×10^6 cells in 100 μl saline) through an intracardiac route. Mice received either vehicle or PDZ1i every alternative day (9 injections during the first […]) and maintained until they needed to be euthanized. FIG. 19C) Survival data for C57BL/6 mice injected through the intracardiac route with RM1-Luc. Vehicle or PDZ1i was administered through intraperitoneal injection every alternate day (total 3 injections during the first week). Survival curves were generated using 6 control vehicle-treated and 5 PDZ1i-treated. Kaplan—Meier survival curves were prepared using Graph Pad software. […] Graphical representation of the average prostate weights from control and treated groups. FIG. 19E and FIG. 19F) Photomicrographs representing the histological changes in prostate sections obtained from 6-month old Hi-Myc mice receiving either vehicle (FIG. 19E) or PDZ1i (FIG. 19F). To evaluate potential therapeutic efficacy of PDZ1i four sets of in vivo experiments were conducted. […]
# [1] = test system: HuVEC cells / chorioallantoic membrane; test: in vitro tube formation and CAM assays with tumor-derived conditioned media; assay type: cell-based; conditions: data not shown
# Procedure: In this study, the potential impact of PDZ1i on tumor-derived angiogenesis in a prostate cancer context was explored. The experimental strategy is outlined in FIG. 18A. […] This observation was also validated in different PC cells by qPCR. Additionally, since VEGF-A is a potent angiogenic factor and a downstream target of STAT3, the expression pattern of VEGF-A at both mRNA and protein levels was also evaluated in different PC cells, including mda-9 stably expressing RWPE-1 cells (FIG. 18C).
# Tube formation and CAM assays were performed as described previously^27. Briefly, tumor-derived conditioned media were collected after 24 h of treatment (either DMSO or PDZ1i) and concentrated. Equal amounts of protein (50 μg) containing conditioned media were mixed with basal media and incubated with HuVEC cells on Matrigel layers. Photographs were taken after 6 h. In CAM assays, DMSO- or PDZ1 i-treated tumor cell-derived conditioned media were implanted on the CAM of 8 day-old fertilized eggs. Photographs were taken on day 12, 4 days after applying conditioned media.
structure (smiles),measurement,setting,value
"Cc1cc(NC(=O)c2nc3[nH]c4c(c(=O)n3n2)CCC4)c(C)cc1NC(=O)CCc1nnc(-c2ccccc2)o1 [113B7, N-(2,5-dimethyl-4-(3-(5-phenyl-1,3,4-oxadiazol-2-yl)propanamido)phenyl)-8-oxo-5,6,7,8-tetrahydro-4H-cyclopenta[d][1,2,4]triazolo[1,5-a]pyrimidine-2-carboxamide]",FAK activation after radiation,U87-EGFRvIII cells; PDZ1i prior to radiation,nullified
same,phospho-EGFR,U87-EGFRvIII cells; radiated and non-radiated cells,significantly reduced
same,tumor burden in the lungs,RM1-Luc cells,significantly reduced the tumor burden in the lungs
same,angiogenic activity of treated tumor cell-derived conditioned media,[1],anti-angiogenic properties
